Legend:
[1] = target: T1, tubulin (microtubular protein purified from pig brains) (Sus scrofa, UniProt P02550+P02554); assay: Inhibition of tubulin polymerization (turbidimetry at 340 nm); type: biochemical; settings: pig brain microtubular protein 1 mg/ml, 0.25 mmol GTP, 37° C.
T1 construct: microtubular protein was purified from pig brains via cydic assembling/disassembling; from tissue; host or cells: pig brain
Method: The in-vitro testing of the tubulin polymerization influence was performed as follows:
According to Shelanski et al. (Shelanski et al. Proc. Natl. Acad. Sci. USA 1973, 70, 765-8), microtubular protein was purified from pig brains via cydic assembling/disassembling. The buffer system used had the following composition: 20 mmol of PIPES (1,4-piperazine-diethane-sulfonic acid, pKa 6.8), 80 mmol of NaCl, 0.5 mmol of MgCl2, 1 mmol of EGTA [ethylene glycol-bis-(2-aminoethylene)-tetraacetic acid].
For active ingredient testing, protein concentrations of 1 mg/ml (about 10^−5 mmol of tubulin) were used. The determination of protein was carried out according to the Lowry Method (Lowry et al. J. Biol. Chem. 1951, 193, 265-75) with bovine serum albumin as a standard. The assembling of microtubuli was carried out in the presence of 0.25 mmol of GTP and heating the samples to 37° C.
The microtubulus formation was examined by means of turbidimetry at a wavelength of 340 nm.
Testing of the active ingredients was carried out by their addition at the beginning of the assembling or in the state of equilibrium. […] To monitor action and to evaluate the measured turbidity values, a transmission electron microscopic study (CEM 902 A, Zeiss/Oberkochen) of the assemblates was always performed after negative staining with 1% aqueous uranyl acetate.

[2] = tested on: HCT116 human colon tumor cells; assay: Inhibition of cell proliferation, crystal violet staining; type: cell-based; settings: HCT116, 4 days incubation
Method: (§1) Cell cultures of the following cell lines were prepared in 96-well microtiter plates: • 1. MaTu/ADR multidrug-resistant human breast tumor cells (Epo GmbH Berlin), 5000 cells/well. • 2. HCT116 human colon tumor cells (ATCC CCL-247), 3000 cells/well. • 3. NCl-H460 human non-small-cell lung cancer cells (ATCC HTB-177), 3000 cells/well. • 4. DU145 human prostate tumor cells (ATCC HTB-81), 5000 cells/well. • 5. HMVEC human primary dermal microvascular endothelial cells, 7500 cells/well.
(§2) After 24 hours of incubation in a cell culture incubator at 37° C., the cells of a microtiter plate were stained with crystal violet (reference plate), while the cells in the test plates were incubated for 4 days with the test substances in the concentrations […], as well as with the DMSO solvent by itself (solvent control). The cell proliferation was determined by staining cells with crystal violet. The extinction of the crystal violet was determined by photometry at 595 nm. The percentage of the change in the cell number in the test plates was determined after the extinction values were normalized to the reference plate (0%) and to the solvent control (100%). The semi-maximal inhibition of the cell growth (IC50) was determined as the substance concentration, in which 50% of the cell number of the solvent controls were present.

[3] = tested on: NCl-H460 human non-small-cell lung cancer cells; assay: as above; type: cell-based; settings: NCl-H460, 4 days incubation
Method: as §1, §2

[4] = tested on: MaTu/ADR multidrug-resistant human breast tumor cells; assay: as above; type: cell-based; settings: 4 days incubation
Method: as §1, §2

[5] = tested on: DU145 human prostate tumor cells; assay: as above; type: cell-based; settings: DU145, 4 days incubation
Method: as §1, §2

[6] = tested on: HMVEC human primary dermal microvascular endothelial cells; assay: as above; type: cell-based; settings: 4 days incubation
Method: as §1, §2

T1 sequence (P02550 whole entry): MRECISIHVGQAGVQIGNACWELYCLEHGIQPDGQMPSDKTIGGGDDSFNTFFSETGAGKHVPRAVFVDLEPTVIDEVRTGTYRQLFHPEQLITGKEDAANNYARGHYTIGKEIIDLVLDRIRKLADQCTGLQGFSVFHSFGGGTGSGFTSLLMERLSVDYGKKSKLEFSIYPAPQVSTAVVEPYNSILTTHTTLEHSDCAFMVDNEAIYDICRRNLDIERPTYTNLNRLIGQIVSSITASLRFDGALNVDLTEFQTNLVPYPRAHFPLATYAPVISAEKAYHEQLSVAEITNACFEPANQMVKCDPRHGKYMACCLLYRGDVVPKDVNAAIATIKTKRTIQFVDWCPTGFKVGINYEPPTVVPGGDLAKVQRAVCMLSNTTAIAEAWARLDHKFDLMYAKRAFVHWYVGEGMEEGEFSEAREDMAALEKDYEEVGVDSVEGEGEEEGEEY
T1 sequence (P02554 whole entry): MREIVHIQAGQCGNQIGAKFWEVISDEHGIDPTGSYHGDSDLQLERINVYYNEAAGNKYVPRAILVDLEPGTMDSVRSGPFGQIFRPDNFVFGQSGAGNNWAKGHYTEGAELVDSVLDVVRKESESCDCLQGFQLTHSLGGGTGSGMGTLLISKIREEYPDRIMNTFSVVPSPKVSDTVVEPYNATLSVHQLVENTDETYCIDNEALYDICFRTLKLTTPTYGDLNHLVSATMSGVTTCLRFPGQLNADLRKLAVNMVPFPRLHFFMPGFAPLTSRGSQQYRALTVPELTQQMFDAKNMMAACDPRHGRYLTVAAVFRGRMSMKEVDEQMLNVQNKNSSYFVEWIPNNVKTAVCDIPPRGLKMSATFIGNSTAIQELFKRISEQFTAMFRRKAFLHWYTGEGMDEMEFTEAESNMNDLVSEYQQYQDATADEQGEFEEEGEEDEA

Row | SMILES | IC50 [1] | IC50 [2] | IC50 [3] | IC50 [4] | IC50 [5] | IC50 [6] | IC50 ([2]; Homo sapiens, HCT-116, 96 h) | IC50 ([3]; Homo sapiens, 96 h) | IC50 ([4]; Homo sapiens, 96 h) | IC50 ([5]; Homo sapiens, DU-145, 96 h) | IC50 ([6]; Homo sapiens, 96 h)
1 | COc1cc2c(cc1O)CC[C@@H]1[C@@H]2CC[C@]2(C)[C@@H](O)CC[C@@H]12 [2-Methoxyestradiol, reference compound] | 2700 nM | 1100 nM | 1800 nM | 200 nM | 1900 nM | 2200 nM | – | – | – | – | –
2 | COc1cc2c(cc1OS(N)(=O)=O)CC[C@@H]1[C@@H]2CC[C@]2(C)C(=O)CCC[C@@H]12 [(1), 2-Methoxy-17a-oxo-17a-homoestra-1,3,5(10)-trien-3-yl Sulfamate] | – | 180 nM | 180 nM | < 100 nM | 500 nM | 220 nM | – | – | – | – | –
3 | COc1cc2c(cc1OS(N)(=O)=O)CC[C@@H]1[C@@H]2CC[C@]2(C)CCCC[C@@H]12 [(2), 2-Methoxy-17a-homoestra-1,3,5(10)-trien-3-yl Sulfamate] | 950 nM | – | – | – | – | – | 600 nM | 600 nM | 200 nM | 600 nM | 500 nM
4 | COc1cc2c(cc1OS(N)(=O)=O)CC[C@@H]1[C@@H]2CC[C@]2(C)[C@@H](OS(N)(=O)=O)CCC[C@@H]12 [(4), 2-Methoxy-17a-homoestra-1,3,5(10)-triene-3,17aβ-diyl Bissulfamate] | – | 1800 nM | 1800 nM | 800 nM | 2800 nM | 600 nM | – | – | – | – | –
5 | CC(=O)O[C@H]1C(=O)[C@@]2(C)[C@H]([C@H](OC(=O)c3ccccc3)[C@]3(O)C[C@H](OC(=O)[C@H](O)[C@@H](NC(=O)c4ccccc4)c4ccccc4)C(C)=C1C3(C)C)[C@]1(OC(C)=O)CO[C@@H]1C[C@@H]2O [Taxol, reference compound] | – | – | – | – | – | – | 4 nM | 4 nM | 400 nM | 4 nM | 4 nM
